Laboratory results as given in patent US6593329B1, “Method for the treatment or prevention of coronary graft vasospasm” (Orion Corporation, priority 1999, dated 2003).
Values joined by “and” are separate entries in the source; they are usually repeats but may differ in a detail not shown here. Identical values can stand only once.

System: human internal mammary artery (IMA) preparations
Assay: Prevention of noradrenaline-induced vasospasm in isolated human internal mammary artery rings (isolated ring technique)
Assay type: cell-based
Conditions: for Prevention (%) of graft vasospasm (as % of maximal attainable spasm): IMA rings contracted with noradrenaline 1-10 μM, per patient and mean
Description: The effect of levosimendan to prevent vasospasm was investigated in human internal mammary artery (IMA) preparations from coronary by-pass surgery (8 patients) at three different levels of vascular tone using isolated ring technique. It is known that IMA may produce spasm during and after graft surgery especially at low perfusion pressure (at or lower than 50 mmHg).
Isometric stretch was applied perpendicular to the direction of blood flow for 45 min in organ bath containing oxygenated Krebs-Henseleit solution (37° C., pH 7.4). Magnitude of stretch (in mN) was converted into quasi-equivalent pressure values (23, 46 and 92 mmHg) according to the Laplace law. Isolated IMA rings were contracted with noradrenaline (1-10 μM), and at the steady state contraction, levosimendan (0.3 and 0.6 μM) was added cumulatively.

Compound: CC1CC(=O)NN=C1c1ccc(NN=C(C#N)C#N)cc1 (single isomer, unassigned; (-)) [Levosimendan, (−)-[[4-(1,4,5,6-tetrahydro-4-methyl-6-oxo-3-pyridazinyl)phenyl]hydrazono]propanedinitrile]
- Prevention (%) of graft vasospasm (as % of maximal attainable spasm) (23 mmHg transmural pressure, levosimendan 0.3 μM): 46.1% and 27.2% and 37.5% and 60.0% and 46.7% and 40.0%
- Prevention (%) of graft vasospasm (as % of maximal attainable spasm) (23 mmHg transmural pressure, levosimendan 0.6 μM): 76.9% and 125.0% and 45.5% and 62.5% and 0% and 110.0% and 113.3% and 113.0%
- Prevention (%) of graft vasospasm (as % of maximal attainable spasm) (46 mmHg transmural pressure, levosimendan 0.3 μM): 28.6% and 75.0% and 13.8% and 8.3% and 57.1% and 16.2% and 37.8% and 17.3%
- Prevention (%) of graft vasospasm (as % of maximal attainable spasm) (46 mmHg transmural pressure, levosimendan 0.6 μM): 85.7% and 100.0% and 41.4% and 27.1% and 114.3% and 21.6% and 78.4% and 57.7%
- Prevention (%) of graft vasospasm (as % of maximal attainable spasm) (92 mmHg transmural pressure, levosimendan 0.3 μM): 16.6% and 0% and 3.9% and 8.2% and 9.6%
- Prevention (%) of graft vasospasm (as % of maximal attainable spasm) (92 mmHg transmural pressure, levosimendan 0.6 μM): 61.6% and 22.0% and 14.9% and 34.7% and 26.7%
- Prevention of graft vasospasm (result in words) (clinically relevant submicromolar concentrations, in particular at low perfusion pressure values): prevents graft vasospasm
